# According to US6613772B1, “Substituted 2-aryl-4-amino-chinazolines, method for the production and use thereof as medicaments” (Aventis Pharma Deutschland GmbH, priority 1997, dated 2003):
# Columns and labels:
# [1] = biological target: T1, soluble guanylate cyclase (sGC) (Bos taurus, UniProt P16068+P19687); experiment: Activation of the soluble guanylate cyclase (cGMP enzyme immunoassay); format: biochemical; conditions: test substance 50 μM; sGC isolated from bovine lung; [cGMP] test substance/[cGMP] control (basal activity, solvent); 37° C., 15 to 20 minutes
# T1 construct: The sGC employed had been isolated from bovine lung; from tissue; host or cells: bovine lung
# T1 sequence (P19687 1-691): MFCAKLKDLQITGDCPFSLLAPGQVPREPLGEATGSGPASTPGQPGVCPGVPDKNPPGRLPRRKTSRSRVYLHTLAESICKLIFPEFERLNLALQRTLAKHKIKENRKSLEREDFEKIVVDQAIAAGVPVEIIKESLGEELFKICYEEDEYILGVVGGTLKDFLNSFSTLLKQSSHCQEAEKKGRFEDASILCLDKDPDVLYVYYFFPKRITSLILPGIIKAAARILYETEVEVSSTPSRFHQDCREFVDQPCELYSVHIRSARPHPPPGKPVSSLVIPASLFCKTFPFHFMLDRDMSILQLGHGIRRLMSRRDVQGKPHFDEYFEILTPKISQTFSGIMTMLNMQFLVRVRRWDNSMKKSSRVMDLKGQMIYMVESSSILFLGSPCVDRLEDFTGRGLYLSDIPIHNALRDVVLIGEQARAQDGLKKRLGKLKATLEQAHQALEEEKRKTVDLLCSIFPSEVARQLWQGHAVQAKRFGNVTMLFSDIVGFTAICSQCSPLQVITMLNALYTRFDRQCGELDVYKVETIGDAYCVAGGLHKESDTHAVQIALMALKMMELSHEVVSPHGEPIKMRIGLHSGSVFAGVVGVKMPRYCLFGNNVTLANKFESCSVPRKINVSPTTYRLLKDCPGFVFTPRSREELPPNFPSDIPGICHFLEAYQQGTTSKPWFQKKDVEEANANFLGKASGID
# T1 sequence (P16068 1-619): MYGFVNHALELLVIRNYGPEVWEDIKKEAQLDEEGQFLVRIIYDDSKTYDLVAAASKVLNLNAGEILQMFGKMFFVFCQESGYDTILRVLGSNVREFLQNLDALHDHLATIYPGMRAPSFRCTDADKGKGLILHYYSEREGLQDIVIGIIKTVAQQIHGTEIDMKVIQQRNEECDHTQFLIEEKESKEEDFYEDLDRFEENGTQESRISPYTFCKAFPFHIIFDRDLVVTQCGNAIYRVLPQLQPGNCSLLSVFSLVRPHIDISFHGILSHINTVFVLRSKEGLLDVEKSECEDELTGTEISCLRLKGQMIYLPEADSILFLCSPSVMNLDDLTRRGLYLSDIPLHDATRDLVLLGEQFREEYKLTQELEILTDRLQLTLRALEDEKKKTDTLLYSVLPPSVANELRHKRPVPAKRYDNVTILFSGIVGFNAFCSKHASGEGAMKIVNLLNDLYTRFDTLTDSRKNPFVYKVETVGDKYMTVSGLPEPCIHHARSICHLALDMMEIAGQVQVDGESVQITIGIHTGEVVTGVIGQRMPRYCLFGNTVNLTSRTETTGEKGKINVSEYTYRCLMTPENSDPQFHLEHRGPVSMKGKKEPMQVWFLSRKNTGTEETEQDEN
# Procedure: Activation of the Soluble Guanylate Cyclase
# The activation of the soluble guanylate cyclase (sGC), which catalyzes the conversion of guanosine triphosphate (GTP) into cyclic guanosine monophosphate (cGMP) and pyrophosphate, by the compounds according to the invention was quantified with the aid of an enzyme immunoassay (EIA) from Amersham. For this, the test substances were first incubated with sGC in microtiter plates and then the amount of resulting cGMP was determined. The sGC employed had been isolated from bovine lung (see Methods in Enzymology, Volume 195, p. 377). The test solutions (100 μl per well) contained 50 mM triethanolamine (TEA) buffer (pH 7.5), 3 mM MgCl2, 3 mM reduced glutathione (GSH), 0.1 mM GTP, 1 mM 3-isobutyl-1-methylxanthine (IBMX), suitably diluted enzyme solution and the test substance or, in the case of the control experiments, solvent. The test substances were dissolved in dimethyl sulfoxide (DMSO) and the solution was diluted with DMSO/water such that the final concentration of test substance in the test solution was 50 μM. The DMSO concentration in the test solution was 5% (v/v). The reaction was started by addition of the sGC. The reaction mix was incubated at 37° C. for 15 to 20 minutes and then stopped by ice-cooling and addition of the stop reagent (50 mM EDTA, pH 8.0). An aliquot of 50 μl was taken and employed for the determination of the cGMP content using the acetylation protocol of the Amersham cGMP EIA kit. The absorption of the samples was measured at 450 nm (reference wavelength 620 nm) in a microtiter plate reader. The cGMP concentration was determined by means of a calibration curve which was obtained under the same experimental conditions. The activation of the sGC by a test substance is indicated as n-fold stimulation of the basal enzyme activity which was found in the control experiments (with solvent instead of test substance calculated according to the formula
# n-fold stimulation=[cGMP]test substance/[cGMP]control).
Structure (SMILES),n-fold Stimulation [1] [n-fold],melting point [°C]
"COc1cc2c(N3CCN(Cc4ccccc4)CC3)nc(-c3ccc(Cl)cc3)nc2c(OC)c1OC [Example 09, 2-(4-Chlorophenyl)-4-(4-benzylpiperazino)-6,7,8-trimethoxyquinazoline]",4,–
"COc1cc2c(NCCN(C(C)C)C(C)C)nc(-c3ccc(Cl)cc3)nc2c(OC)c1OC.Cl [Example 11, 2-(4-Chlorophenyl)-4-(2-diisopropylaminoethylamino)-6,7,8-trimethoxyquinazoline Hydrochloride]",6,189
"COc1cc2c(N3CCN(CC(=O)N4CCOCC4)CC3)nc(-c3ccc(Cl)cc3)nc2c(OC)c1OC [Example 12, 2-(4-Chlorophenyl)-4-(4-(morpholinocarbonylmethyl)piperazino)-6,7,8-trimethoxyquinazoline]",6,177
"COc1cc2c(N3CCN(CCO)CC3)nc(-c3ccc(Cl)cc3)nc2c(OC)c1OC [Example 13, 2-(4-Chlorophenyl)-4-(4-(2-hydroxyethyl)piperazino)-6,7,8-trimethoxyquinazoline]",7,175
"COc1cc2c(NCCCN3CCOCC3)nc(-c3ccc(Cl)cc3)nc2c(OC)c1OC.Cl [Example 14, 2-(4-Chlorophenyl)-4-(3-morpholinopropylamino)-6,7,8-trimethoxyquinazoline Hydrochloride]",3,190
"COc1cc2nc(-c3ccc(Cl)cc3)nc(N3CCN(C)CC3)c2cc1OC.Cl [Example 17, 2-(4-Chlorophenyl)-4-(4-methylpiperazino)-6,7-dimethoxyquinazoline Hydrochloride]",4,249
"COc1cc2nc(-c3ccc(Cl)cc3)nc(NCCO)c2cc1OC [Example 20, 2-(4-Chlorophenyl)-4-(2-hydroxyethylamino)-6,7-dimethoxyquinazoline]",5,236
"COc1cc2nc(-c3ccc(Cl)cc3)nc(N3CCN(CCO)CC3)c2cc1OC [Example 23, 2-(4-Chlorophenyl)-4-(4-(2-hydroxyethyl)piperazino)-6,7-dimethoxyquinazoline]",4,163
"COc1cc2nc(-c3ccc(Cl)cc3)nc(N3CCN(CC(=O)NC(C)C)CC3)c2cc1OC [Example 24, 2-(4-Chlorophenyl)-4-(4-(isopropylaminocarbonylmethyl)piperazino)-6,7-dimethoxyquinazoline]",3,187
"COc1cc2nc(-c3ccc(Cl)cc3)nc(NCC(N)=O)c2cc1OC [Example 25, 2-(4-Chlorophenyl)-4-((aminocarbonylmethyl)amino)-6,7-dimethoxyquinazoline]",3,291
"COc1cc2nc(-c3ccc(Cl)cc3)nc(NCc3cccnc3)c2cc1OC [Example 28, 2-(4-Chlorophenyl)-4-((3-pyridylmethyl)amino)-6,7-dimethoxyquinazoline]",5,232
"COc1cc2nc(-c3ccc(Cl)cc3)nc(NCCCO)c2cc1OC [Example 32, 2-(4-Chlorophenyl)-4-(3-hydroxypropylamino)-6,7-dimethoxyquinazoline]",5,187
"COc1cc2nc(-c3ccc(Cl)cc3)nc(NCCOCCO)c2cc1OC [Example 33, 2-(4-Chlorophenyl)-4-(2-(2-hydroxyethoxy)ethylamino)-6,7-dimethoxyquinazoline]",3,188
"COc1cc2nc(-c3ccc(Cl)cc3)nc(N(C)C)c2cc1OC [Example 35, 2-(4-Chlorophenyl)-4-dimethylamino-6,7-dimethoxyquinazoline]",5,148
"COCCNc1nc(-c2ccc(Cl)cc2)nc2cc(OC)c(OC)cc12 [Example 36, 2-(4-Chlorophenyl)-4-(2-methoxyethylamino)-6,7-dimethoxyquinazoline]",5,178
"CCCN(CCC)c1nc(-c2ccc(Cl)cc2)nc2cc(OC)c(OC)cc12 [Example 81, 2-(4-Chlorophenyl)-4-dipropylamino-6,7-dimethoxyquinazoline]",–,223
"CCCN(CCC)c1nc(-c2cc(C(F)(F)F)cc(C(F)(F)F)c2)nc2c(OC)c(OC)c(OC)cc12 [Example 82, 2-(3,5-Bistrifluoromethylphenyl)-4-dipropylamino-6,7,8-trimethoxyquinazoline]",–,121
"COc1cc2nc(-c3ccc(C)cc3)nc(N3CC(C)OC(C)C3)c2cc1OC (stereo not shown) [Example 83, 2-(4-Methylphenyl)-4-(2,6-dimethylmorpholino)-6,7-dimethoxyquinazoline]",–,177
"COCCCNc1nc(-c2ccc(C)cc2)nc2cc(OC)c(OC)cc12 [Example 84, 2-(4-Methylphenyl)-4-(3-methoxypropylamino)-6,7-dimethoxyquinazoline]",–,162
"COc1cc2nc(-c3ccc(Cl)cc3)nc(N3CC(C)OC(C)C3)c2cc1OC (stereo not shown) [Example 85, 2-(4-Chlorophenyl)-4-(2,6-dimethylmorpholino)-6,7-dimethoxyquinazoline]",–,165
"COCCCNc1nc(-c2ccc(Cl)cc2)nc2cc(OC)c(OC)cc12 [Example 86, 2-(4-Chlorophenyl)-4-(3-methoxypropylamino)-6,7-dimethoxyquinazoline]",–,240
"COc1cc2nc(-c3ccc(Cl)cc3)nc(N3CCC(C(N)=O)CC3)c2cc1OC [Example 88, 2-(4-Chlorophenyl)-4-(4-aminocarbonylpiperidino)-6,7-dimethoxyquinazoline]",–,225
"COc1cc2nc(-c3ccc(Cl)cc3)nc(N3CCCCCC3)c2cc1OC [Example 89, 2-(4-Chlorophenyl)-4-hexamethyleneimino-6,7-dimethoxyquinazoline]",–,189
"COc1cc2nc(-c3ccc(Cl)cc3)nc(N3C[C@@H](C)O[C@@H](C)C3)c2cc1OC [Example 90, 2-(4-Chlorophenyl)-4-(cis-2,6-dimethylmorpholino)-6,7-dimethoxyquinazoline]",–,223
"COc1cc2c(N3CCC(O)CC3)nc(-c3ccc(Cl)cc3)nc2c(OC)c1OC [Example 95, 2-(4-Chlorophenyl)-4-(4-hydroxypiperidino)-6,7,8-tdmethoxyquinazoline]",7,–
"COc1cc2nc(-c3ccc(C)cc3)nc(N(C)Cc3cccnc3)c2cc1OC [Example 97, 2-(4-Methylphenyl)-4-(N-methyl-N-(3-pyridylmethyl)amino)-6,7-dimethoxyquinazoline]",–,165
